Assay results taken from publication PMC5503534, “Stable aneuploid tumors cells are more sensitive to TTK inhibition than chromosomally unstable cell lines” (Oncotarget, 2017).
“And” between values parts separate entries of the source, which are not always exact repeats. Equal entries are not always repeated. Where two headings read alike, the source gives them in different places.

Columns and labels:
[1] = tested on: HCT 116 colon carcinoma cell line; assay: Cell proliferation assay (ATPlite), HCT 116; format: cell-based, human
Method: (§1) Cell proliferation assays were carried out as described using ATPlite 1step™ (Perkin Elmer, Groningen, The Netherlands). Exposure time was 72 or 120 hours as indicated in the Legends to the Figures. Percentage growth was calculated, relative to the growth of unexposed cells, and relative IC50s were fitted using a four-parameter logistics curve (XLfit 5.3, IDBS). For Figure 4A and 7 dose response curves were redrawn in Prism. To compare the inhibitory potency of compounds in proliferation assays with HCT 116 parental and tetraploid clones, pIC50 (−^10logIC50) values were compared in three independent experiments. A two-tailed Student's t-test was performed to determine whether differences in sensitivity (ΔpIC50) were statistically significant. Caspase 3/7 activity of cancer cells was measured using Caspase-Glo 3/7 Assay kit (cat no. G8093, Promega, Madison USA). Viability of T-ALL cell samples was determined using ATPlite and exposure of 72 hours as described previously.

[2] = tested on: LoVo colorectal adenocarcinoma cell line; assay: Cell proliferation assay (ATPlite), LoVo; format: cell-based, human; conditions: 5 day proliferation assay
Method: as §1

[3] = tested on: A-172 glioblastoma cell line; assay: Cell proliferation assay (ATPlite), A-172; format: cell-based, human; conditions: 5 day proliferation assay
Method: as §1

[4] = tested on: MG-63 osteosarcoma cell line; assay: Cell proliferation assay (ATPlite), MG-63; format: cell-based, human; conditions: 5 day proliferation assay
Method: as §1

[5] = tested on: post-tetraploid HPT2 cells; assay: Cell proliferation assay, post-tetraploid HPT2; format: cell-based, human; conditions: HPT2, five days
Method: Cancer cell lines and hTERT-RPE1 retinal pigment epithelial cells were purchased from the American Type Culture Collection (ATCC) (Manassas, VA, U.S.A.) from 2011 to 2014 [41] and cultured in ATCC-recommended media. All experiments were carried out within nine passages of the original vials from ATCC who authenticated the cancer cell lines by short tandem repeat analysis. We verified the mutant status of seven frequently mutated cancer genes (i.e., BRAF, CDKN2A, CTNNB1, EGFR, KRAS, PIK3CA and TP53) by full exome or targeted sequencing. Sequencing results were compared to COSMIC version 75 of the Genomics of Drug Sensitivity in Cancer data base and provided additional authentication of the identity of the cell lines. The isolation and characterization of post-tetraploid clones from HCT 116 has been described previously. The mutation status of the CDKN2A, CTNNB1, KRAS and PIK3CA genes were confirmed by sequence analysis in both the HCT 116 parental cell line and post-tetraploid clones. All experiments were carried out within nine passages of the original cell stocks that were transferred from the Max Planck Institute of Biochemistry (Martinsried, Germany) to Netherlands Translational Research Center.
as §1

[6] = tested on: patient-derived colorectal carcinoma organoids; assay: Organoids drug sensitivity and viability assay; format: cell-based, human
Method: The establishment and characterization of the human colon cancer organoids has been described. The organoids were cultured in drops of Geltrex LDEV-Free Reduced Growth Factor Basement Membrane Matrix (Gibco, cat no. A1413202) in DMEM/F12 medium (Thermo), supplemented with 1% (v/v) penicillin/streptomycin (Gibco), 1% Hepes buffer, pH7.5, 1% L-glutamine (Gibco), 1 μg/mL R-spondin (Sigma), 100 ng/mL Noggin (Peprotech), B27 vitamin A-free (Invitrogen, cat no. 12587010), 1 mM n-acetyl cysteine (Sigma), 10 mM nicotinamide (Sigma), 50 ng/mL EGF (BD Biosciences), 500 nM A83-01 (Tocris), 10 μM SB202190 (Sigma), 10 μM Y-27632 (Sigma) and 10 nM Prostaglandin E2 (Cayman). Medium was refreshed every four days and organoids were splitted by treatment with TryPLE Express (Gibco, cat. no. 12604013).
Organoids were dissociated by TryPLE Express treatment and filtered using a 40 μm nylon cell strainer (Falcon). The organoids were re-suspended in Geltrex at a density of 250,000 cells/mL and seeded in the wells of 96-well plates (Corning, cat no. 3903) at 10 μl per well. Compounds were added four days after plating and 72 hours later viability was determined using Cell-Titer Glo 3D Cell Viability Assay (Promega, Madison USA). Experiments were performed in three biological replicates and technical triplicates were averaged per experiment.

[7] = tested on: HCT 116, LoVo, A-172, DoTc2 4510, MG-63, OVCAR-3 cell lines; assay: Time-lapse microscopy, sensitive and resistant cell lines; format: cell-based, human; conditions: 100 nM
Method: The activity of the mitotic checkpoint was measured by the time between the breakdown of the nuclear envelop and the onset of anaphase (Figure 2A). Under the vehicle-treated control conditions, all sensitive cells were able to accomplish a normal mitosis in approximately 35 minutes (HCT 116, 30 min; LoVo, 41 min; A172, 36 min; Figure 2A and Supplementary Figure 1). In contrast, the three resistant cell lines spent more time in mitosis, i.e., almost one hour (MG-63, 53 min), or up to 2 and 3 hours (DoTc2 4510, 122 min; OVCAR-3, 173 min).
HCT 116 diploid and tetraploids stably expressed green fluorescent protein-tagged histone 2B (H2B-GFP). All other cell lines were pre-incubated with SiR-DNA (Spirochrome, Switzerland) in order to visualize DNA. Cells were cultured in Leibovitz L15 CO2-independent cell culture medium in 6-well glass bottom chamber (LabTek Corp., Australia) and synchronized by treatment with 2 mM thymidine. After 24 hours of synchronization, and 4 hours before the start of the imaging experiment, medium was replaced by medium without thymidine. […] Image Z-stacks were acquired with 3-μm intervals using a sCMOS camera (DeltaVision RT; Applied Precision, GE Healthcare, Issaquah, WA) and processed using ImageJ software (NIH, Bethesda, MD, USA). Chromosome mis-segregation phenotypes co-occurred and many combinations existed. For clarity, all the events were scored and included: more than two phenotypes, mitotic slippage, DNA bridge, micro-nuclei and multipolar spindle.

[8] = tested on: caspase 3/7 in HCT 116, HPT1, HPT2 and HPT4 cells; assay: Caspase 3/7 activity assay; format: cell-based, human; conditions: 316 nM, three days, parental line and HPT1, HPT2, HPT4
Method: as §1

[9] = tested on: OVCAR-3 ovary adenocarcinoma cell line; conditions: three day cell proliferation assay; cited from earlier work

Q: With `CCc1cccc(CC)c1NC(=O)c1ccn2c1CCc1cnc(Nc3ccc(N4CCN(C)CC4)cc3OC)nc1-2` [NTRC 0066-0] as the compound, how does the IC50 ([1]; 5 day proliferation assay, HCT 116 (Suppl. Table 1)) read?
A: The IC50 was 0.041 µM.

Q: What about the “Eff. (%)” value ([1]; HCT 116, five days, maximum inhibitory effect, average of three experiments) of the same compound?
A: The value was 80%.

Q: What about the IC50 ([1]; HCT 116 near-diploid, five days, geometric average of three experiments (Suppl. Table 2A)) of the same compound?
A: The IC50 was 0.044 µM.

Q: And the IC50 [2]?
A: The IC50 was 0.035 µM.

Q: What about the IC50 [3] of the same compound?
A: Its IC50 is 0.034 µM.

Q: What about the IC50 [4] of the same compound?
A: The IC50 was 0.26 µM.

Q: And the “Efficacy (%)” value ([5]; average of three experiments)?
A: The value was 36%.

Q: What about the IC50 ([5]; geometric average of three experiments) of the same compound?
A: The IC50 was 0.044 µM.

Q: What about the ΔpIC50 ([6]; All organoids, NTRC 0066-0 vs reversine) of the same compound?
A: Its ΔpIC50 is 1.17.

Q: What about the pIC50 ([6]; All organoids, geometric average) of the same compound?
A: Its pIC50 is 7.59.

Q: And the ΔpIC50 ([6]; organoid p14, NTRC 0066-0 vs reversine)?
A: The ΔpIC50 was 1.34.

Q: And the pIC50 ([6]; organoid p14, three days)?
A: The pIC50 was 7.65.

Q: What about the IC50 ([6]; organoid p14, three days, read-out: IC50) of the same compound?
A: The IC50 was 0.0225 µM.

Q: What about the pIC50 ([6]; organoid p18, three days) of the same compound?
A: The pIC50 was 7.68.

Q: What about the IC50 ([6]; organoid p18, three days, read-out: IC50) of the same compound?
A: The IC50 was 0.0221 µM.

Q: And the ΔpIC50 ([6]; organoid p28, NTRC 0066-0 vs reversine)?
A: The ΔpIC50 was 1.22.

Q: What about the pIC50 ([6]; organoid p28, three days) of the same compound?
A: Its pIC50 is 7.43.

Q: And the IC50 ([6]; organoid p28, three days, read-out: IC50)?
A: The IC50 was 0.037 µM.

Q: What about the “times more potent than reversine” value ([6]; organoids) of the same compound?
A: The value was 10 times.

Q: What about the IC50 ([6]; organoids from three different patients, read-out: average IC50) of the same compound?
A: Its IC50 is 0.027 µM.

Q: And the time-in-mitosis ([7]; all cell lines, nuclear envelope breakdown to anaphase onset)?
A: Its time-in-mitosis is “approximately 20 min”.

Q: What about the defective anaphases ([7]; resistant cell lines) of the same compound?
A: The defective anaphases was 63–71%.

Q: What about the defective anaphases ([7]; sensitive cell lines) of the same compound?
A: The defective anaphases was “at least 60%”.

Q: What about the “caspase 3/7 activity” value [8] of the same compound?
A: The value was “induced caspase 3/7 activity”.

Q: And the IC50 [9]?
A: The IC50 was 0.897 µM and 0.872 µM.
